For the test, the target named is MK-2 (Homo sapiens, UniProt P49137). The experiment in a line: Determination of MK-2 IC50 (phosphorylation of HSP-peptide, anion exchange resin capture assay). The test is classed as biochemical. The conditions noted are these: additional values are replicate IC50 experiments; mixture of stereoisomers implied unless otherwise noted; read-out: MK-2 Avg. IC50.

This passage reports IC50 results from patent US20050137220A1 (Pharmacia Corporation, priority 2003, published 2005).

Structures can show the parent of a compound that is named as a salt.

Sequence of MK-2 (P49137 whole entry, species assumed): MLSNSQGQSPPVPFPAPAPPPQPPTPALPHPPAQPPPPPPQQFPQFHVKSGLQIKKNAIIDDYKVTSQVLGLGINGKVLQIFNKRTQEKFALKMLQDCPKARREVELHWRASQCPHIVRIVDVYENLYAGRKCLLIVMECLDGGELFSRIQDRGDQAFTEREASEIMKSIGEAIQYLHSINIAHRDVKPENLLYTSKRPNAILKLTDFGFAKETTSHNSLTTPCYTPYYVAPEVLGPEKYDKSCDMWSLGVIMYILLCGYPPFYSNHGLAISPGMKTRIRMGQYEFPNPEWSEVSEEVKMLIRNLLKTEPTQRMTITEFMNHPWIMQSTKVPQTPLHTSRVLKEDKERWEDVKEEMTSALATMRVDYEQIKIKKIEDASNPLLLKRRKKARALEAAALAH

In general, IC50 refers to the midpoint of a concentration-inhibition curve. Consider `CCCC1Cc2c([nH]c3ccc(OC)cc23)C(C(=O)O)N1` (stereo not drawn) [Example 148, 6-methoxy-3-propyl-2,3,4,9-tetrahydro-1H-beta-carboline-1-carboxylic acid], for which the half-maximal inhibitory concentration (IC50) worked out at 137 µM.

In the case of `COC(=O)c1cccc2[nH]c3c(c12)CCNC3C(=O)O` (stereo not drawn) [Example 142, 5-(methoxycarbonyl)-2,3,4,9-tetrahydro-1H-beta-carboline-1-carboxylic acid hydrochloride hydrate], the IC50 worked out at 121 µM. For `COc1ccc2[nH]c3c(c2c1)CCC(C)(C)C3=NO` (mixture of isomers) [Example 272, 6-methoxy-2,2-dimethyl-2,3,4,9-tetrahydro-1H-carbazol-1-one oxime] the value was greater than 200 µM; for `COc1ccc2[nH]c3c(c2c1)CCN1C(=O)CCC31C(=O)O` (centres unmarked) [Example 163, 8-methoxy-3-oxo-2,3,6,11-tetrahydro-1H-indolizino[8,7-b]indole-11b(5H)-carboxylic acid], greater than 200 µM.

As to `Cc1cccc2c3c([nH]c12)C(C(=O)O)NCC3` (stereo not drawn) [Example 215, 8-methyl-2,3,4,9-tetrahydro-1H-beta-carboline-1-carboxylic acid hydrochloride], the IC50 was greater than 200 µM. In the case of `COc1ccc2[nH]c3c(c2c1)CCNC3[C@H](O)CO` (stereo partly drawn) [Example 239, (1S)-1-(6-methoxy-2,3,4,9-tetrahydro-1H-beta-carbolin-1-yl)ethane-1,2-diol trifluoroacetate], the half-inhibitory concentration (IC50) is greater than 200 µM. For `COc1ccc2[nH]c3c(c2c1)CCNC3Cc1nnn[nH]1` (stereo not drawn) [Example 166, 6-methoxy-1-(1H-tetraazol-5-ylmethyl)-2,3,49-tetrahydro-1H-beta-carboline hydrochloride hydrate] the value was greater than 200 µM. The figure for `COc1ccc2[nH]c3c(c2c1)CCNC3CO` (stereo not drawn) [Example 221, (6-methoxy-2,3,4,9-tetrahydro-1H-beta-carbolin-1-yl)methanol] is greater than 200 µM; for `COc1ccc2[nH]c3c(c2c1)CCN1C3C(=O)NC1(C)C` (centres unmarked) [Example 180, 8-methoxy-3,3-dimethyl-2,3,5,6,11,11b-hexahydro-1H-imidazo[1′,5′:1,2]pyrido[3,4-b]indol-1-one] it is greater than 200 µM. The figure for `NNC(=O)c1cccc2[nH]c3c(c12)CCNC3C(=O)O` (stereo not drawn) [Example 200, 5-(hydrazinocarbonyl)-2,3,4,9-tetrahydro-1H-beta-carboline-1-carboxylic acid trifluoroacetate] is greater than 200 µM; for `O=C1NCCc2c1[nH]c1ccc(O)cc21` [Example 108, 6-hydroxy-2,3,4,9-tetrahydro-1H-beta-carbolin-1-one] it is 48.9 µM; for `CCOC(=O)C1c2[nH]c3ccccc3c2CCN1C(=O)c1ccc(OC)o1` (centres unmarked) [Example 211, 1h-Pyrido[3,4-B]Indole-1-Carboxylic Acid, 2,3,4,9-Tetrahydro-2-[(5-Methoxy-2-Furanyl)Carbonyl]-,Ethyl Ester] it is greater than 200 µM. Turning to `COc1ccc2[nH]c3c(c2c1)CCC3=NO` [Example 132, 7-methoxy-1,4-dihydrocyclopenta[b]indol-3(2H)-one oxime], the 50% inhibitory concentration (IC50) is 104 µM.

In the case of `ON=C1CCCc2c1[nH]c1ccc(C(F)(F)F)cc21` [Example 154, 6-(trifluoromethyl)-2,3,4,9-tetrahydro-1H-carbazol-1-one oxime], the IC50 is 156 µM. For `COC(=O)c1cccc(COc2ccc3[nH]c4c(c3c2)CCNC4C(=O)O)c1` (stereo not drawn) [Example 159, 6-{[3-(methoxycarbonyl)benzyl]oxy}-2,3,4,9-tetrahydro-1H-beta-carboline-1-carboxylic acid hydrochloride] the value was 182 µM; for `CCCC1Cc2c([nH]c3ccc(OC)cc23)C(C(=O)O)N1` (stereo not drawn) [Example 190, 6-methoxy-3-propyl-2,3,4,9-tetrahydro-1H-beta-carboline-1-carboxylic acid], greater than 200 µM; for `O=C1NCCc2c1[nH]c1ccc(Cl)cc21` [Example 125, 1H-Pyrido[3,4-b]indol-1-one, 6-chloro-2,3,4,9-tetrahydro- or 6-chloro-2,3,4,9-tetrahydro-1H-beta-carbolin-1-one], 89.6 µM.

`O=C1NCCc2c1[nH]c1cccc(C(=O)N3CCOCC3)c21` [Example 251, 5-(morphoiln-4-ylcarbonyl)-2,3,4,9-tetrahydro-1H-beta-carbolin-1-one]: the IC50 is greater than 200 µM. For `COc1ccc2[nH]c3c(c2c1)CCNC3C(=O)NCC(=O)O` (stereo not drawn) [Example 229, N-[(6-methoxy-2,3,4,9-tetrahydro-1H-beta-carbolin-1-yl)carbonyl]glycine hydrochloride hydrate] the value was greater than 200 µM; for `COCCOc1ccc2[nH]c3c(c2c1)CCNC3C(=O)O` (stereo not drawn) [Example 135, 6-(2-methoxyethoxy)-2,3,4,9-tetrahydro-1H-beta-carboline-1-carboxylic acid], 110 µM; for `COC(=O)C1c2[nH]c3ccc(OC)cc3c2CCN1C(C)C` (stereo not drawn) [Example 199, methyl 2-isopropyl-6-methoxy-2,3,4,9-tetrahydro-1H-beta-carboline-1-carboxylate], greater than 200 µM. As for `O=C(O)C1NCCc2c1[nH]c1ccc(OCc3ccc4ccccc4c3)cc21` (stereo not drawn) [Example 127, 6-(2-naphthylmethoxy)-2,3,4,9-tetrahydro-1H-beta-carboline-1-carboxylic acid hydrochloride], the IC50 was 91.3 µM.

`CN1CCc2c(n(-c3ccccc3)c3ccccc23)C1=O` [Example 257, 2-methyl-9-phenyl-2,3,4,9-tetrahydro-1H-beta-carbolin-1-one]: the IC50 is greater than 200 µM. For `O=C(O)C1c2c(c3ccccc3n2Cc2ccccc2)CCN1Cc1cccc(C(F)(F)F)c1` (stereo not drawn) [Example 112, 1H-Pyrido[3,4-b]indole-1-carboxylic acid, 2,3,4,9-tetrahydro-9-(phenylmethyl)-2-[[3-(trifluoromethyl)phenyl]methyl]- or 9-benzyl-2-[3-(trifluoromethyl)benzyl]-2,3,4,9-tetrahydro-1H-beta-carboline-1-carboxylic acid] the value was 53.7 µM; for `CN1C(=O)C(=O)c2c(n(C)c3ccccc23)C1=O` [Example 263, 1H-Pyrido[3,4-b]indole-1,3,4(2H,9H)-trione, 2,9-dimethyl- or 2,9-dimethyl-1H-beta-carboline-1,3,4(2H,9H)-trione], greater than 200 µM. For `COC(=O)c1cccc2[nH]c3c(c12)CCNC3C(=O)O` (stereo not drawn) [Example 238, 5-(methoxycarbonyl)-2,3,4,9-tetrahydro-1H-beta-carbolin-1-carboxylic acid hydrate] the value was greater than 200 µM. The figure for `CCOC(=O)c1ccc(COc2ccc3[nH]c4c(c3c2)CCNC4C(=O)O)o1` (stereo not drawn) [Example 133, 6-{[5-(ethoxycarbonyl)-2-furyl]methoxy}-2,3,4,9-tetrahydro-1H-beta-carboline-1-carboxylic acid] is 105 µM; for `COC1=C(C#N)Cc2c([nH]c3ccc(OC)cc23)C(=O)N1` [Example 269, 3,7-dimethoxy-1-oxo-1,2,5,10-tetrahydroazepino[3,4-b]indole-4-carbonitrile] it is greater than 200 µM. On to `Cc1ccc2[nH]c3c(c2c1)CCNC3C(=O)O` (stereo not drawn) [Example 216, 6-methyl-2,3,4,9-tetrahydro-1H-beta-carboline-1-carboxylic acid hydrochloride], for which the IC50 was greater than 200 µM. The figure for `COC(=O)C1c2[nH]c3ccc(OC)cc3c2CCN1C(C)=O` (stereo not drawn) [Example 232, methyl 2-acetyl-6-methoxy-2,3,4,9-tetrahydro-1H-beta-carboline-1-carboxylate] is greater than 200 µM; for `CCOC(=O)C1Cc2c([nH]c3ccc(OC)cc23)C(C(=O)O)N1` (stereo not drawn) [Example 177, 3-(ethoxycarbonyl)-6-methoxy-2,3,4,9-tetrahydro-1H-beta-carboline-1-carboxylic acid] it is greater than 200 µM. `O=C(O)C1NCCc2c1[nH]c1ccc(OCC3CCCCC3)cc21` (stereo not drawn) [Example 198, 6-(cyclohexylmethoxy)-2,3,4,9-tetrahydro-1H-beta-carboline-1-carboxylic acid]: the IC50 was greater than 200 µM. For `COc1ccc2[nH]c3c(c2c1)CCNC3(Cc1ccccc1)C(=O)O` (stereo not drawn) [Example 241, 1-benzyl-6-methoxy-2,3,4,9-tetrahydro-1H-beta-carboline-1-carboxylic acid hydrochloride] the value was greater than 200 µM; for `COc1ccc2[nH]c3c(c2c1)CCN(C(=O)OCc1ccccc1)C3C(=O)NCC(=O)OCc1ccccc1` (stereo not drawn) [Example 218, 2-[(benzyloxy)carbonyl]-6-methoxy-N-[2-(benzyloxy)-2-oxo]ethyl-2,3,4,9-tetrahydro-1H-beta-carboline-1-carboxamide], greater than 200 µM; for `COC(=O)c1ccc2[nH]c3c(c2c1)CCNC3=O` [Example 270, methyl 1-oxo-2,3,4,9-tetrahydro-1H-beta-carboline-6-carboxylate], greater than 200 µM. For `O=C1NCCc2c1[nH]c1ccc(Br)cc21` [Example 117, 6-bromo-2,3,4,9-tetrahydro-1H-beta-carbolin-1-one] the value was 69.6 µM; for `COc1ccc2[nH]c3c(c2c1)C(Cc1ccc(CO)cc1)CNC3C(=O)O` (stereo not drawn) [Example 114, 4-[4-(hydroxymethyl)benzyl]-6-methoxy-2,3,4,9-tetrahydro-1H-beta-carboline-1-carboxylic acid], 61.4 µM; for `COc1ccc(Oc2ccc3[nH]c4c(c3c2)CCC/C4=N\O)cc1` [Example 144, 6-(4-methoxyphenoxy)-2,3,4,9-tetrahydro-1H-carbazol-1-one oxime], 130 µM. For `COc1ccc2c3c([nH]c2c1)C(C(=O)O)NCC3` (stereo not drawn) [Example 217, 7-methoxy-2,3,4,9-tetrahydro-1H-beta-carboline-1-carboxylic acid hydrochloride] the value was greater than 200 µM; for `COc1ccc2[nH]c3c(c2c1)CCNS3(=O)=O` [Example 153, 6-methoxy-2,3,4,9-tetrahydro[1,2]thiazino[6,5-b]indole 1,1-dioxide], 155 µM. On to `COC(=O)C1c2[nH]c3ccc(OC)cc3c2CCN1Cc1ccccc1` (stereo not drawn) [Example 168, methyl 2-benzyl-6-methoxy-2,3,4,9-tetrahydro-1H-beta-carboline-1-carboxylate], for which the half-inhibitory concentration (IC50) is greater than 200 µM.
